From US7629318B2, “Immunosuppressant compounds, methods and uses related thereto” (priority 2002, dated 2009)
Several values for one entry are separate records, joined by “and”; a condition that tells them apart may be missing. Equal entries are not always repeated. Where two headings read alike, the source gives them in different places. Square brackets hold non-standard residues; d marks the D form. Peptide text beside a SMILES is read from it. * marks the point of attachment. N(Me)CH2CH2Ph = CN(CCc1ccccc1)*; Tic = O=C(O)[C@@H]1Cc2ccccc2CN1; Cha = N[C@@H](CC1CCCCC1)C(=O)O; X4 = OCCOCCN(CCc1ccccc1)*; Nle = CCCC[C@H](N)C(=O)O; X2 = OCCOCCN(Cc1ccccc1)*; X6 = OCCN(CCc1ccccc1)*

Experiments:
[1] = target: DR4Dw4 (DRA1*0101 DRB1*0401) (Homo sapiens, UniProt P01903+P01911, A100K/A169T/F76Y/I96L/K127E/L162R/M171V/N62H/P40V/Q125Y/R42H/S133A/S149N/S66Y/V115G/V209L/W38E); assay: Competitive binding to MHC-II protein DR4Dw4
Protocol: (§1) Interaction mixtures lacking the peptidomimetic compound and both peptide mimetic compound and MHC-II were used as positive and negative controls, respectively. All interaction mixtures were set up in duplicates and were incubated for 16 hours at room temperature.
(§2) After washing with PBS, 60 μl of the MHC-II-compound interaction mixtures were transferred from the interaction plate to the appropriate wells of the capture plate and incubated for 2 h at 4° C. The wells were washed six times with 200 μl/well of cooled (4 to 8° C.) 1×DELFIA wash (Wallac-ADL-GmbH, Freiburg), incubated with 100 μl of cooled Europium-streptavidin conjugate (Wallac-ADL-GmbH, Freiburg; diluted 1/1000 with DELFIA assay buffer) for 30 minutes at 4° C., again washed six times with cooled 1×DELFIA wash and, finally, incubated with 200 μl cooled DELFIA enhancement solution (Wallac-ADL-GmbH, Freiburg) for one hour at room temperature before reading the time-resolved europium fluorescence at λex Eu^3+: 340 nm and λem Eu^3+: 613 (615) nm (Wallac Victor^2 1420 Multilabel Counter, Wallac-ADL-GmbH, Freiburg).

[2] = target: DR1 (DRA1*0101 DRB1*0101) (Homo sapiens, UniProt P01903+P01911, A100R/D57E/F55L/F60I/F76Y/I96L/L162R/M171V/P40L/Q125E/R42F/V115G/Y59C); assay: Competitive binding to MHC-II protein DR1; details: Protein binding IC50 (nM) 0101, 0101
Protocol: as §1, §2

[3] = target: DR4Dw14 (DRA1*0101 DRB1*0404) (Homo sapiens, UniProt P01903+P01911, A100R/A169T/F76Y/I96L/K127E/L162R/M171V/N62H/P40V/Q125Y/R42H/S133A/S149N/S66Y/V209L/W38E); assay: Competitive binding to MHC-II protein DR4Dw14
Protocol: as §1, §2

[4] = Stability of compounds in rat blood plasma; assay type: in vitro ADME
Protocol: (§3) The stability of the peptidomimetic compounds was determined in rat (Charles River Laboratories, Sulzfeld), mouse (Charles River Laboratories, Sulzfeld) and human (Bayerisches Rotes Kreuz, München) blood plasma (E. R. Garrett and M. R. Gardner, J Pharmaceutical Sciences 71 (1982) 14-25).
(§4) Compound stock solutions were diluted into blood plasma to give a final compound concentration of 5 μM and the mixtures were incubated at 37° C. At 0, 6 and 24 hours 1 ml samples were drawn and the plasma proteins were precipitated by the addition of 3 ml acetonitrile p.a. and whirlmixing. The precipitate was pelleted by centrifugation at 2000 g for 5 minutes. The supernatant was evaporated off to dryness and the residue was reconstituted in 400 μl 50% acetonitrile, 0.1% TFA in water.
(§5) PBS controls were prepared for unstable compounds accordingly.

[5] = Stability of compounds in mouse blood plasma; assay type: in vitro ADME
Protocol: as §3, §4, §5

[6] = Stability of compounds in human blood plasma; assay type: in vitro ADME
Protocol: as §3, §4, §5

[7] = target: Cathepsin D (EC 3.4.23.5 from bovine spleen) (Bos taurus, UniProt P80209)
Protocol: The stability of the peptidomimetic compounds towards lysosomal degradation was examined by incubation with Cathepsin B1 (EC 3.4.22.1 from bovine spleen; Sigma-Aldrich, Taufkirchen; dissolved at 10000 U/l in ddH2O) and D (EC 3.4.23.5 from bovine spleen; Sigma-Aldrich, Taufkirchen; dissolved at 10000 U/l in ddH2O) for four hours at 37° C. using a compound concentration of 50 μM and an enzyme/substrate ratio of 0.4 U/μmol. The samples contained 25 ppm 4-isopropyl benzyl alcohol (IPBA; Sigma-Aldrich, Taufkirchen) as internal standard.
Assay buffer was prepared by adding 35 μl of a 1% IPBA in DMSO solution and 28 μl of a 10000 U/l Cathepsin B1 or Cathepsin D stock solution to 14 ml of 100 mM sodium acetate, 1 mM EDTA, 1 mM DTT, pH 5.00 or 100 mM sodium acetate, pH 4.50, respectively. 8.8 μl of a 5 mM (or 4.4 μl of a 10 mM) compound stock solution (in 10% DMSO/water) were placed into a 1.5 ml Eppendorf tube. The reaction was started by adding 875 μl fully supplemented assay buffer to each tube, whirlmixing and incubation at 37° C. At 0 and 4 hours 400 μl samples were taken and the enzyme was inactivated by addition of 40 μl […] TFA aq. The samples were kept frozen at −20° C. until analysis by RP-HPLC (200 μl injection volume; Nucleosil 100-5 C18, 12.5×4.6 cm; Gradient: 20-50% acetonitrile in 30 min).
Compounds co-eluting with the internal standard during RP-HPLC analysis were tested without the standard as Example 16.

[8] = target: Cathepsin B1 (EC 3.4.22.1 from bovine spleen) (Bos taurus, UniProt P07688); details: for Stability (Arbitrary units) Cath B 4 h: Cathepsin B
[9] = test system: T-cell proliferation, DR14-LN; details: for Immunsupressive assays DR14-LN (Max) % Inhibition: maximal inhibition; for IC50: read-out: Immunsupressive assays DR14-LN (IC50)
[10] = 0404, read-out: Protein binding IC50 (nM) 0404
[11] = within 4 hours, 37° C., enzyme activity control

Row | Structure (SMILES) | IC50 [1] | IC50 [2] | IC50 [3, 10] | Stability (Arbitrary units) Rat 6 h [4] | Stability (Arbitrary units) Rat 24 h [4] | Stability (Arbitrary units) Mouse 6 h [5] | Stability (Arbitrary units) Mouse 24 h [5] | Stability (Arbitrary units) Human 6 h [6] | Stability (Arbitrary units) Human 24 h [6] | Stability (Arbitrary units) Cath D 4 h [7] | Stability (Arbitrary units) Cath B 4 h [8] | also measured
1 | CCCC[C@H](NC(=O)[C@@H]1Cc2ccccc2CN1C(=O)[C@H](CCCNC(=N)N)NC(=O)[C@H](CC1CCCCC1)NC(C)=O)C(=O)N(CCO)CCc1ccccc1 [Compound P81, Ac-Cha-Arg-Tic-Nle-N(CH2CH2OH)CH2CH2Ph] (Ac-[Cha]R[Tic][Nle]-X6) | 22 µM | 3300 nM | 20000 nM | 88 Arbitrary units | 76 Arbitrary units | 107 Arbitrary units | 70 Arbitrary units | 104 Arbitrary units | 109 Arbitrary units | 99 Arbitrary units | 99 Arbitrary units | 
2 | CSCC[C@H](NC(=O)[C@@H]1Cc2ccccc2CN1C(=O)[C@H](CCCNC(=N)N)NC(=O)[C@H](CC1CCCCC1)NC(C)=O)C(=O)N(CCO)CCc1ccccc1 [Compound P85, Ac-Cha-Arg-Tic-Met-N(CH2CH2OH)CH2CH2Ph] (Ac-[Cha]R[Tic]M-X6) | 13 µM | 1800 nM | 31000 nM | 111 Arbitrary units | 71 Arbitrary units | 98 Arbitrary units | 57 Arbitrary units |  | 129 Arbitrary units | 104 Arbitrary units | 108 Arbitrary units | 
3 | CC[C@H](C)[C@H](NC(=O)CNC(=O)[C@@H](NC(=O)[C@H](Cc1ccccc1)NC(=O)[C@H](CC(C)C)NC(=O)[C@H](CO)NC(=O)[C@H](CC(N)=O)NC(=O)[C@H](C)NC(=O)[C@H](CCCCN)NC(=O)[C@@H](NC(=O)[C@H](Cc1ccc(O)cc1)NC(=O)[C@@H](N)CCC(N)=O)[C@@H](C)CC)[C@@H](C)CC)C(=O)N[C@H](C(=O)N[C@@H](CCC(=O)O)C(=O)N[C@@H](CC(C)C)C(=O)N[C@@H](CCCCN)C(=O)O)[C@@H](C)O [reference compound] (H-QYIKANSLFIGITELK-OH; N-terminus and C-terminus assumed) |  |  |  |  |  |  |  |  |  |  |  | degradation by Cathepsin D [7, 11]: completely degraded
4 | CSCC[C@H](NC(=O)[C@@H]1Cc2ccccc2CN1C(=O)[C@H](CCCNC(=N)N)NC(=O)[C@H](CC1CCCCC1)NC(C)=O)C(=O)N(CCOCCO)CCc1ccccc1 [Compound P96, Ac-Cha-Arg-Tic-Met-N(CH2CH2Ph)CH2CH2OCH2CH2OH] (Ac-[Cha]R[Tic]M-X4) | 5.9 µM | 1000 nM |  |  |  |  |  |  |  | 106 Arbitrary units | 91 Arbitrary units | IC50 ([3]; Protein binding IC50 (nM) 0404, 0404): 7400 nM; Stability (Arbitrary units) Rat 6 h ([4]; rat plasma, 6 h): 83 Arbitrary units; Stability (Arbitrary units) Rat 24 h ([4]; rat plasma, 24 h): 45 Arbitrary units; Stability (Arbitrary units) Mouse 6 h ([5]; mouse plasma, 6 h): 108 Arbitrary units; Stability (Arbitrary units) Mouse 24 h ([5]; mouse plasma, 24 h): 82 Arbitrary units; Stability (Arbitrary units) Human 6 h ([6]; human plasma, 6 h): 117 Arbitrary units; Stability (Arbitrary units) Human 24 h ([6]; human plasma, 24 h): 64 Arbitrary units
5 | CSCC[C@H](NC(=O)[C@@H]1Cc2ccccc2CN1C(=O)[C@H](CCCNC(=N)N)NC(=O)[C@H](CC1CCCCC1)NC(C)=O)C(=O)N(CCOCCO)Cc1ccccc1 [Compound P99, Ac-Cha-Arg-Tic-Met-N(Bn)CH2CH2OCH2CH2OH] (Ac-[Cha]R[Tic]M-X2) |  | 690 nM and 560 nM | 1900 nM | 80 Arbitrary units | 62 Arbitrary units | 71 Arbitrary units | 13 Arbitrary units | 104 Arbitrary units |  | 107 Arbitrary units | 106 Arbitrary units | Immunsupressive assays DR14-LN (Max) % Inhibition [9]: 100%; IC50 [9]: 105 µM
6 | CCCC[C@H](NC(=O)[C@@H]1Cc2ccccc2CN1C(=O)[C@H](CCCNC(=N)N)NC(=O)[C@H](CC1CCCCC1)NC(C)=O)C(=O)N(C)CCc1ccccc1 [Compound P83, Ac-Cha-Arg-Tic-Nle-N(Me)CH2CH2Ph] (Ac-[Cha]R[Tic][Nle]-{N(Me)CH2CH2Ph}) | 24 µM | 1300 nM | 11000 nM | 69 Arbitrary units | 85 Arbitrary units | 93 Arbitrary units | 58 Arbitrary units |  |  | 98 Arbitrary units | 100 Arbitrary units | Immunsupressive assays DR14-LN (Max) % Inhibition [9]: 100%; IC50 [9]: 13 µM
7 | CSCC[C@H](NC(=O)[C@H](C)NC(=O)[C@H](CCCN=C(N)N)NC(=O)[C@H](CC1CCCCC1)NC(C)=O)C(=O)N[C@@H](C)C(=O)N[C@@H](CO)C(=O)N[C@@H](CC(C)C)C(N)=O [Compound P3, Ac-Cha-RAMASL-NH2, reference compound] (Ac-[Cha]RAMASL-NH2) |  |  |  |  |  |  |  |  |  |  |  | degradation by Cathepsin B1 [8, 11]: completely degraded
8 | CSCC[C@H](NC(=O)[C@@H]1Cc2ccccc2CN1C(=O)[C@H](CCCNC(=N)N)NC(=O)[C@H](CC1CCCCC1)NC(C)=O)C(=O)N(C)CCc1ccccc1 [Compound P84, Ac-Cha-Arg-Tic-Met-N(Me)CH2CH2Ph] (Ac-[Cha]R[Tic]M-{N(Me)CH2CH2Ph}) |  | 900 nM | 14000 nM | 104 Arbitrary units | 99 Arbitrary units | 111 Arbitrary units | 53 Arbitrary units | 131 Arbitrary units | 131 Arbitrary units | 101 Arbitrary units | 69 Arbitrary units | 
